Measured values published in US8778919B2, “Cyclic anilino—pyridinotriazines” (Janssen Pharmaceutica NV, priority 2005, dated 2014).

How the values were obtained:
Chang cells = experiment: GSK-3 cellular assay (C2): 14C-D-glucose incorporation into glycogen; type: cell-based; conditions: increase in D-glucose incorporation into glycogen, test concentration of 10^−6 M
Procedure: Test compounds were tested for their ability to increase the incorporation of ^14C-D-glucose into glycogen in living cells. To do this, Chang cells (360,000 cells/well) were cultured in 0.5 ml of MEM Rega 3 medium supplemented with 10% fetal calf serum, 1% L-glutamine and 2% sodium carbonate. After 3 days, cells were washed with 0.5 ml of phosphate-buffered saline and overlayed with 1 ml of serum- and glucose-free DMEM medium. Then, 2 μl of compound in DMSO and 50 μl substrate (3 mM glucose and 0.5 μCi ^14C-D-glucose were added and the cultures were incubated for 90 min. Cells were then extracted with 0.5 ml of 20% KOH for 60 min at 37° C. and the cell lysates were transferred to 10 ml tubes containing 300 μl of 1 mg/ml glycogen as […]. Following the addition of 2 ml ethanol, total glycogen was precipitated overnight at −20° C. and the precipitates were recovered by centrifugation. Precipitates were then resuspended in 1 ml of water and transferred to scintillation counter vials. and the amount of ^14C-D-glucose incorporation into glycogen was measured by scintillation counting. Scores for the compounds according to the invention, were obtained at a test concentration of 10^−6 M. Score 1=10-30% increase, Score 2=30-60% increase, Score 3=60-80% increase and Score 4=>80% increase in D-glucose incorporation.

GSK-3β = GSK-3β (Homo sapiens, UniProt P49841); experiment: GSK-3 kinase assay (C1), GSK-3β; type: biochemical; conditions: 1 μM ATP, read-out: C1 Score β
Sequence of GSK-3β (P49841 whole entry, species assumed): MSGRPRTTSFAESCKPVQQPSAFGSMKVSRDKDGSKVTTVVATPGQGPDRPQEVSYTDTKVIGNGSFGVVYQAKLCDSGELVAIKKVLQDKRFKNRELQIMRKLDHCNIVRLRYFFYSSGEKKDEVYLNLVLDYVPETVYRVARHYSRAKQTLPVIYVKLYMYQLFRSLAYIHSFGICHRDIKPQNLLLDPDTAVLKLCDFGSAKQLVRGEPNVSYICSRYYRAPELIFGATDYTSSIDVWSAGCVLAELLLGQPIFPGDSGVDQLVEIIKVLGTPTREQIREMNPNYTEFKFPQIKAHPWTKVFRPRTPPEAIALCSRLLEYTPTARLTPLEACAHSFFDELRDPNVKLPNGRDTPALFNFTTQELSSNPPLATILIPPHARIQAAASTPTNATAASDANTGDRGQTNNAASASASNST
Procedure, shortened: (§1)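 Radiometric SPA at room temperature in 25 mM Tris pH 7.4 with 10 mM MgCl2, 1 mM DTT, 5.7 ng/μl GSK-3β or 0.25 ng/μl GSK-3α, 5 μM biotinylated CREB peptide and 1 μM ATP plus ^33P-ATP. Stopped after 1 h; IC50 from dose-response versus no-compound control, reported as pIC50 score bands.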

GSK-3α = GSK-3α (Homo sapiens, UniProt P49840); experiment: GSK-3 kinase assay (C1), GSK-3α; type: biochemical; conditions: 1 μM ATP, read-out: C1 Score α
Sequence of GSK-3α (P49840 whole entry, species assumed): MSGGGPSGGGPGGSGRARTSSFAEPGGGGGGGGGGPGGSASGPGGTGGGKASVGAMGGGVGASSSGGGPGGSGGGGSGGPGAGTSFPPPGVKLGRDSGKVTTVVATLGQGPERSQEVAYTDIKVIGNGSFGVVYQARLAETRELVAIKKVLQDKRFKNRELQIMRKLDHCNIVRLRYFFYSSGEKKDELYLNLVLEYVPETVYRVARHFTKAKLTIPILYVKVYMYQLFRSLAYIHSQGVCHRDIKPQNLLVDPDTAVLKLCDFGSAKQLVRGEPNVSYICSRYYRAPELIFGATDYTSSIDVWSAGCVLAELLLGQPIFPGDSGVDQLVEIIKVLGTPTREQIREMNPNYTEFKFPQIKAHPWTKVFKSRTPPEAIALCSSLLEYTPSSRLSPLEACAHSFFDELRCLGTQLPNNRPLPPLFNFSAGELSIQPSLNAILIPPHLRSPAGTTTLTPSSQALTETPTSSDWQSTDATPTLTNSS
Procedure, shortened: as §1

CDK1/cyclinB (h) = CDK1/cyclinB (h) (Homo sapiens, UniProt P06493); experiment: Kinase profiling C3.2 CDK1/cyclinB human; type: biochemical; conditions: test concentration of 10^−6 M
Sequence of CDK1/cyclinB (h) (P06493 whole entry): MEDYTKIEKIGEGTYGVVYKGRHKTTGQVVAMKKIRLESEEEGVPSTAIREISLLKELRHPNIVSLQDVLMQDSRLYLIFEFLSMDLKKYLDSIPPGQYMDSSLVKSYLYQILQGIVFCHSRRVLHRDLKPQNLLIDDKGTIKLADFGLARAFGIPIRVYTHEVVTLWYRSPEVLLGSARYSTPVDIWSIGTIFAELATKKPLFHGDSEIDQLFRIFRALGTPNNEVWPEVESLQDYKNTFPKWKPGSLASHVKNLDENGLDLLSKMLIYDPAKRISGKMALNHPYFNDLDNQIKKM
Sequence of CDK1/cyclinB (h) (P14635 whole entry partner): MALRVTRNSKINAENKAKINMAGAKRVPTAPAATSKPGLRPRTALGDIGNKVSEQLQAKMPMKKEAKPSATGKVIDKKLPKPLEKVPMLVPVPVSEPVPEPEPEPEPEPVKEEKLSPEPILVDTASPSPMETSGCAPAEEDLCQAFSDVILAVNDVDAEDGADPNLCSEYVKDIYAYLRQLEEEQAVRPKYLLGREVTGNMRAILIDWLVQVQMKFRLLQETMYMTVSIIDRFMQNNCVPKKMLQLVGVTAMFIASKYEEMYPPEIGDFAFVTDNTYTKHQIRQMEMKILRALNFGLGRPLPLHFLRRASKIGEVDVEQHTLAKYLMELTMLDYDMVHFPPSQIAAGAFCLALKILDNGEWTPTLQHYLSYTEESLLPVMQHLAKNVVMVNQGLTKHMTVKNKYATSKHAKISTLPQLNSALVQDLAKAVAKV
Procedure, shortened: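 Radiometric filter-binding assay: human CDK1/cyclinB (5-10 mU) with 0.1 mg/ml histone H1 substrate and [γ-33P]ATP in 8 mM MOPS pH 7.0, 10 mM Mg acetate, 40 min at room temperature. Stopped with phosphoric acid; substrate-bound 33P counted on P30 filtermat by scintillation.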

CDK3/cyclinE (h) = CDK3/cyclinE (h) (Homo sapiens, UniProt Q00526); experiment: Kinase profiling C3.5 CDK3/cyclinE human; type: biochemical; conditions: test concentration of 10^−6 M
Procedure, shortened: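 Human CDK3/cyclinE (5-10 mU) phosphorylated 0.1 mg/ml histone H1 in 8 mM MOPS pH 7.0, 0.2 mM EDTA and 10 mM MgAcetate with [γ-33P]ATP. Reaction ran 40 min at room temperature and was stopped with phosphoric acid. Substrate-bound radioactivity was captured on P30 filtermat and measured by scintillation counting.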

CDK7/cyclinH/MAT1 (h) = CDK7/cyclinH/MAT1 (h) (Homo sapiens, UniProt P50613); experiment: Kinase profiling C3.8 CDK7/cyclinH/MAT1 human; type: biochemical; conditions: CDK7/cyclinH/MAT1, test concentration of 10^−6 M
Sequence of CDK7/cyclinH/MAT1 (h) (P50613 whole entry): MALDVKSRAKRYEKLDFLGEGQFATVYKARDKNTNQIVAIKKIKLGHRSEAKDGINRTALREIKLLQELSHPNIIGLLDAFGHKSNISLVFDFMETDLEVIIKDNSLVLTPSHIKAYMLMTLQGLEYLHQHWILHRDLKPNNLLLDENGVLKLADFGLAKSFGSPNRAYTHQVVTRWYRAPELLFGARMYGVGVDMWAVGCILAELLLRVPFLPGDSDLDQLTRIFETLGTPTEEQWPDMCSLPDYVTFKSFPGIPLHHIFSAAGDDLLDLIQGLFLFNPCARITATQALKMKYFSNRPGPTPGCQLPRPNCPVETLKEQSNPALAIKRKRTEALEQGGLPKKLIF
Sequence of CDK7/cyclinH/MAT1 (h) (P51946 whole entry partner): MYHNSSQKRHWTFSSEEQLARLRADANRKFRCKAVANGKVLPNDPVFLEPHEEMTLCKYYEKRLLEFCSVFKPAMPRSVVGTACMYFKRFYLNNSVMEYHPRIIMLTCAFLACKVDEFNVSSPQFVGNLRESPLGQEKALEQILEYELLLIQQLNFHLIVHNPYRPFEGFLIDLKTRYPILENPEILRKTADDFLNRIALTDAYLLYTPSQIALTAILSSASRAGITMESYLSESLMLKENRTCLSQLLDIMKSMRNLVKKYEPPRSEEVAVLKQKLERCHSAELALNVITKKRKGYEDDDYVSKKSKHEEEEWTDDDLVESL
Sequence of CDK7/cyclinH/MAT1 (h) (P51948 whole entry partner): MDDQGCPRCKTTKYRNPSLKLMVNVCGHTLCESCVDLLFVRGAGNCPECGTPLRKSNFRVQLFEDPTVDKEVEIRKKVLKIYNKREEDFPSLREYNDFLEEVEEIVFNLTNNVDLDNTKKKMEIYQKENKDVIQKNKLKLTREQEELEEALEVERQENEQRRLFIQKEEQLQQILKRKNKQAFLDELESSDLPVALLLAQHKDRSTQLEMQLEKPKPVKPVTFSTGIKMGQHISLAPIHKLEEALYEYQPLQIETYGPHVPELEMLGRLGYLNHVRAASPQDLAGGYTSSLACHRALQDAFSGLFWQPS
Procedure, shortened: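 Human CDK7/cyclinH/MAT1 (5-10 mU) incubated 40 min at room temperature in 8 mM MOPS pH 7.0, 0.2 mM EDTA, 10 mM Mg acetate, 500 μM peptide substrate and [γ-^33P]ATP. Stopped with phosphoric acid; substrate phosphorylation measured by filter binding and scintillation counting.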

CDK2/cyclinA (h) = CDK2/cyclinA (h) (Homo sapiens, UniProt P24941); experiment: Kinase profiling C3.3 CDK2/cyclinA human; type: biochemical; conditions: test concentration of 10^−6 M
Procedure, shortened: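 Human CDK2/cyclinA (5-10 mU) phosphorylates 0.1 mg/ml histone H1 in 8 mM MOPS pH 7.0, EDTA, 10 mM Mg acetate with [γ-33P]ATP, 40 min at room temperature. After phosphoric acid stop, filter-bound 33P counted by scintillation.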

CDK5/p35 human = CDK5/p35 human (Homo sapiens, UniProt Q00535); experiment: Kinase profiling C3.6 CDK5/p35 human; type: biochemical; conditions: CDK5/p35, test concentration of 10^−6 M
Sequence of CDK5/p35 human (Q00535 whole entry): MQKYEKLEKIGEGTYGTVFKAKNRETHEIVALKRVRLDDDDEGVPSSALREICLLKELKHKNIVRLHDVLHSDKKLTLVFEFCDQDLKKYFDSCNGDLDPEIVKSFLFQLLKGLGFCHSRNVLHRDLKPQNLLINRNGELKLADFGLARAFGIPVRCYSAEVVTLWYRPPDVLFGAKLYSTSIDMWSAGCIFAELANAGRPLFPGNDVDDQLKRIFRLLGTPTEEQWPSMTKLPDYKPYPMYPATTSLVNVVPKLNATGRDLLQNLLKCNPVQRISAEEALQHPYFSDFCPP
Sequence of CDK5/p35 human (Q15078 whole entry partner): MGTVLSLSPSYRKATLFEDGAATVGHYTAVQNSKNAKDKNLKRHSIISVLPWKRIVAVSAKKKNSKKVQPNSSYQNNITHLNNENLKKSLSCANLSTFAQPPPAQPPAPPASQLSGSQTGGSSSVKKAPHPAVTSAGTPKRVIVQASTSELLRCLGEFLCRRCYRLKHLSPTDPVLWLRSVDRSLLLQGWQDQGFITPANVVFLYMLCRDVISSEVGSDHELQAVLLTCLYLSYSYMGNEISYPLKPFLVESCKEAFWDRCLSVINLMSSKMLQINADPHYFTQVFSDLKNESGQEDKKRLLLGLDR
Procedure, shortened: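 Radiometric filter-binding assay: human CDK5/p35 (5-10 mU) with 0.1 mg/ml histone H1 substrate in 8 mM MOPS pH 7.0, 0.2 mM EDTA, 10 mM Mg acetate and [γ-33P]ATP. Incubated 40 min at room temperature, stopped with phosphoric acid. Substrate 33P incorporation counted on P30 filtermat by scintillation.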

CDK2/cyclinE (h) = CDK2/cyclinE (h) (Homo sapiens, UniProt P24941); experiment: Kinase profiling C3.4 CDK2/cyclinE human; type: biochemical; conditions: test concentration of 10^−6 M
Procedure, shortened: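 Radiometric filter-binding assay: 5-10 mU enzyme with 0.1 mg/ml histone H1 in 8 mM MOPS pH 7.0, 0.2 mM EDTA, 10 mM Mg acetate and [γ-33P]ATP. Incubated 40 min at room temperature, stopped with phosphoric acid. Substrate-bound 33P counted on P30 filtermat.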

Aurora-A (h) = molecular target: T1, Aurora-A (h) (Homo sapiens, UniProt O14965); experiment: Kinase profiling C3.1 Aurora-A human; type: biochemical; conditions: test concentration of 10^−6 M
T1 sequence (O14965 1-403): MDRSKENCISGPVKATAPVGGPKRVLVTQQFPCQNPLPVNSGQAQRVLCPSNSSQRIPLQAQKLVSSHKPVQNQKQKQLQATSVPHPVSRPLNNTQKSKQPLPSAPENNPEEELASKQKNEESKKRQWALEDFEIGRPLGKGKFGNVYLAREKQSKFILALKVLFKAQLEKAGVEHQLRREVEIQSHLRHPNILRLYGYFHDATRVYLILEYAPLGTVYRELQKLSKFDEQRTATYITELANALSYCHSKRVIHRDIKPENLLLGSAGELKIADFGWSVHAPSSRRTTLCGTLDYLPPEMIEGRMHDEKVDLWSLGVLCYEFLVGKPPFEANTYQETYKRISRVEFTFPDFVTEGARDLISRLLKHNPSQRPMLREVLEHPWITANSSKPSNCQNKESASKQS
Procedure: (§2) The in vitro inhibition of a panel of kinases was assessed using either the glass-fiber filter technology as described by Davies, S. P. et al., Biochem J. (2000), 351; p. 95-105. In the glass-fiber filter technology the activity of the kinase of interest is measured using an appropriate substrate that is incubated with the aforementioned kinase protein in the presence of (^33P) radiolabeled ATP. (^33P) Phosporylation of the substrate is subsequently measured as radioactivity bound on a glassfiber-filter.
(§3) All kinases are pre-diluted to a 10× working concentration prior to addition into the assay. The composition of the dilution buffer for each kinase is detailed below.
(§4) All substrates are dissolved and diluted to working stocks in de-ionised water, apart from histone H1 that is stored in 10× working stock in 20 mM MOPS pH 7.4.
(§5) In a final reaction volume of 25 μl, Aurora-A (h) (5-10 mU) is incubated with 8 mM MOPS pH 7.0, 0.2 mM EDTA, 200 μM LRRASLG (Kemptide), 10 mM MgAcetate and [γ-^33P-ATP] (specific activity approx. 500 cpm/pmol, concentration as required). The reaction is initiated by the addition of the MgATP mix. After incubation for 40 minutes at room temperature, the reaction is stopped by the addition of 5 μl of a 3% phosphoric acid solution. 10 μl of the reaction is then spotted onto a P30 filtermat and washed three times for 5 minutes in 50 mM phosphoric acid and once in methanol prior to drying and scintillation counting.

cSRC (h) = cSRC (h) (Homo sapiens, UniProt P12931); experiment: Kinase profiling C3.9 cSRC human; type: biochemical; conditions: test concentration of 10^−6 M
Sequence of cSRC (h) (P12931 whole entry): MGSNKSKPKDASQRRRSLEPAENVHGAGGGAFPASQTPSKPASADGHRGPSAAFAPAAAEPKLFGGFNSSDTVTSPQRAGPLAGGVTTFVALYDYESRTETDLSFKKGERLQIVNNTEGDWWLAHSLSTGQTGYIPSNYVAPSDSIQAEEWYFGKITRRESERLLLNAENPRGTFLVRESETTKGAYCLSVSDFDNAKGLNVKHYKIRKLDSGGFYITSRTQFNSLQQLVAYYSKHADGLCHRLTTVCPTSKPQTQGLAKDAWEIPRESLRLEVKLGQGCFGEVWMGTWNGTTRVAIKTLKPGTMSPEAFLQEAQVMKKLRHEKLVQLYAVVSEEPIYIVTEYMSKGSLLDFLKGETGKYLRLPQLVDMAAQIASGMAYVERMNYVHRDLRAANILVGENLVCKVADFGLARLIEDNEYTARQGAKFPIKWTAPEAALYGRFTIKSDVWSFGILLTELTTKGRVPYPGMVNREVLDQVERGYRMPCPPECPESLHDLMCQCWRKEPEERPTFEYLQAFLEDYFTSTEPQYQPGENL
Procedure: as §2, §3, §4
In a final reaction volume of 25 μl, cSRC (h) (5-10 mU) is incubated with 8 mM MOPS pH 7.0, 0.2 mM EDTA, 250 μM KVEKIGEGTYGVVYK (Cdc2 peptide), 10 mM MgAcetate and [γ-^33P-ATP] (specific activity approx. 500 cpm/pmol, concentration as required). The reaction is initiated by the addition of the MgATP mix. After incubation for 40 minutes at room temperature, the reaction is stopped by the addition of 5 μl of a 3% phosphoric acid solution.
10 μl of the reaction is then spotted onto a P30 filtermat and washed three times for 5 minutes in 75 mM phosphoric acid and once in methanol prior to drying and scintillation counting.

Yes (h) = Yes (h) (Homo sapiens, UniProt P07947); experiment: Kinase profiling C3.10 Yes human; type: biochemical; conditions: test concentration of 10^−6 M
Sequence of Yes (h) (P07947 whole entry): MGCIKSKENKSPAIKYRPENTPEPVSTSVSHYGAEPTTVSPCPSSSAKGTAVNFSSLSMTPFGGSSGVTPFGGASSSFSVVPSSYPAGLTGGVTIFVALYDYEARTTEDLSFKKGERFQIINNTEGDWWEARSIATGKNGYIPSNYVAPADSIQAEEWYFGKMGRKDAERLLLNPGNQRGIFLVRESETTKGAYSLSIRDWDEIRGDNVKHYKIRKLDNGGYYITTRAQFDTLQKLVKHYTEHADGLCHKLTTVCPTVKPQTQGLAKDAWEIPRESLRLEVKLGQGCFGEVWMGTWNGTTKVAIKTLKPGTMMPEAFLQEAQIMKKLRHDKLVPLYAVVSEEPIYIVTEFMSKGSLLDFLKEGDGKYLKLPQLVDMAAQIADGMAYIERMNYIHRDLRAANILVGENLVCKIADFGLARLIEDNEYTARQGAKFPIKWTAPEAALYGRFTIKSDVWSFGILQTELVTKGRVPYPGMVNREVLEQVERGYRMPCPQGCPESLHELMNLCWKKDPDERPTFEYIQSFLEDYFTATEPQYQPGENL
Procedure: as §2, §3, §4
as §5, with “μl, Yes” for “μl, Aurora-A”, “EDTA, 0.1 mg/ml poly(Glu, Tyr) 4:1,” for “EDTA, 200 μM LRRASLG (Kemptide),”, “a Filtermat A” for “a P30 filtermat”, “in 75” for “in 50”

Row | SMILES | C2 Score (Chang cells) | IC50 (GSK-3β) [µM] | IC50 (GSK-3α) [µM] | C3.2 score (CDK1/cyclinB (h)) | C3.5 score (CDK3/cyclinE (h)) | C3.8 score (CDK7/cyclinH/MAT1 (h)) | C3.3 score (CDK2/cyclinA (h)) | C3.6 score (CDK5/p35 human) | C3.4 score (CDK2/cyclinE (h)) | C3.1 score (Aurora-A (h)) | C3.9 score (cSRC (h)) | C3.10 score (Yes (h))
1 | CN1CC(=O)NCCNc2cc(ccn2)-c2ncnc(n2)Nc2cccc(c2)C1 [Compound 4] | 4 (Score 4=>80% increase in D-glucose incorporation) | 0.01 to 0.1 | 0.01 to 0.1 | – | – | – | – | – | – | – | – | –
2 | CN1CC(=O)NCCCNc2cc(ccn2)-c2ncnc(n2)Nc2cccc(c2)C1 [Compound 5] | 4 (Score 4=>80% increase in D-glucose incorporation) | 0.01 to 0.1 | 0.01 to 0.1 | – | – | – | – | – | – | – | – | –
3 | O=C1CN2CCN(CC2)Cc2cccc(c2)Nc2ncnc(n2)-c2cccc(c2)CCCN1 [Compound 52] | 4 (Score 4=>80% increase in D-glucose incorporation) | – | < 0.01 | 4 (Score 4 = >80% inhibition) | 2 (Score 2 = 30-60% inhibition) | 1 (Score 1 = 10-30% inhibition) | 4 (Score 4 = >80% inhibition) | 3 (Score 3 = 60-80% inhibition) | 4 (Score 4 = >80% inhibition) | – | – | –
4 | O=C1CNCc2cccc(c2)Nc2ncnc(n2)-c2cncc(c2)CCCN1 [Compound 83] | 4 (Score 4=>80% increase in D-glucose incorporation) | – | 0.01 to 0.1 | – | – | – | 2 (Score 2 = 30-60% inhibition) | – | – | 2 (Score 2 = 30-60% inhibition) | 2 (Score 2 = 30-60% inhibition) | 2 (Score 2 = 30-60% inhibition)
5 | O=C1CN2CCN(CC2)Cc2cccc(c2)Nc2ncnc(n2)-c2cncc(c2)CCCN1 [Compound 84] | 3 (Score 3=60-80% increase) | – | < 0.01 | 3 (Score 3 = 60-80% inhibition) | 2 (Score 2 = 30-60% inhibition) | 1 (Score 1 = 10-30% inhibition) | 2 (Score 2 = 30-60% inhibition) | 2 (Score 2 = 30-60% inhibition) | 3 (Score 3 = 60-80% inhibition) | – | – | –
